Measurements: US7947707B2, “Nitrogenated heterocyclic compound and pharmaceutical composition comprising the same” (Kissei Pharmaceutical Co., Ltd., priority 2005, dated 2011)

System: potassium oxonate induced hyperuricemia
Test: Blood hypouricemic effect, potassium oxonate induced hyperuricemia
Format: in vivo
Conditions: Rattus norvegicus, po; 10 mg/kg orally; male SD rats; serum 2 hours after administration; read-out: Decrease (%) in UA concentration
Experimental: Effect of compound of the present invention as a test compound was studied on potassium oxonate induced hyperuricemia with male 7-week-old SD rats (Charles River Japan) and potassium oxonate (Aldrich) suspended in 1% gum arabic solution. Test compound was suspended in 0.5% CMC-Na solution, and then administered orally. Dosing was 10 mg/kg or 50 mg/kg. All volume of administered solution was 10 mL/kg. Potassium oxonate 250 mg/kg was administered to dorsal region of rats subcutaneously, 1 hour later each test compound was administered orally. For control group, only 0.5% CMC-Na solution as a vehicle was administrated. At 2 hours after administration of test compounds or vehicle, blood was collected under ether anesthesia, and serum was separated according to general method. Treated number was 5 for each group.
Measurement of concentration of uric acid was conducted with following prepared reagents. The deproteinization reagent was prepared in the following manner; 100 g of sodium tungstate was added to a 2 L flask, and exactly 75 mL of 85% phosphoric acid and 500 mL of water were added to the flask equipped with a reflux condenser, and heated for an hour. After cooling, the resulting faint yellow-green solution was diluted to 1 L exactly. Sodium carbonate-urea reagent was prepared in the following manner; 14 g of anhydrous sodium carbonate and 14 g of urea were dissolved in water and final volume of the solution was adjusted to 100 mL exactly. Phosphotungstic coloring reagent was prepared in 4-fold dilution of deproteinzation reagent described above with water. UA standard solution (10 mg/dL: Kyokuto pharmaceutical industrial CO., LTD) was used as an uric acid standard solution, and then serially diluted uric acid standard solution with purified water was also used for standard curve.
Three hundred μL of serum or standard was added to 2.1 mL of purified water, and then 150 μL of deproteination reagent was also added to the solution, followed by mixing. After incubating for 20 minutes, the mixture was centrifuged at 3000 rpm for 10 minutes. Sodium carbonate-urea reagent (0.5 mL) was added to 1.5 mL of supernatant, and the mixture was incubated for 20 minutes. Next, after addition of 250 μL of coloring reagent, further incubation was carried over 15 minutes. Absorbance at 660 nm was measured, and concentration of uric acid was calculated with standard curve. Percent decrease in concentration of uric acid was calculated by following formula. Percent decrease in concentration of uric acid (%)=(A−B)/A×100
In formula, A means average of concentration of blood uric acid in control group, B means average of concentration of blood uric acid in test compounds-treated group.

Compound	inhibition in vivo at 10 mg/kg
Cc1ccccc1-c1cn(-c2ccc(C(=O)O)cc2)cc1C#N [XO-B395-1]	79.1%
N#Cc1cn(-c2ccc(C(=O)O)cc2)cc1-c1ccccc1 [XO-B327]	74.1%

Biological target: T1, HEK293 cells forced to express URAT1 (Homo sapiens, UniProt Q96S37)
T1 construct: host or cells: HEK293
T1 sequence (Q96S37 1-553): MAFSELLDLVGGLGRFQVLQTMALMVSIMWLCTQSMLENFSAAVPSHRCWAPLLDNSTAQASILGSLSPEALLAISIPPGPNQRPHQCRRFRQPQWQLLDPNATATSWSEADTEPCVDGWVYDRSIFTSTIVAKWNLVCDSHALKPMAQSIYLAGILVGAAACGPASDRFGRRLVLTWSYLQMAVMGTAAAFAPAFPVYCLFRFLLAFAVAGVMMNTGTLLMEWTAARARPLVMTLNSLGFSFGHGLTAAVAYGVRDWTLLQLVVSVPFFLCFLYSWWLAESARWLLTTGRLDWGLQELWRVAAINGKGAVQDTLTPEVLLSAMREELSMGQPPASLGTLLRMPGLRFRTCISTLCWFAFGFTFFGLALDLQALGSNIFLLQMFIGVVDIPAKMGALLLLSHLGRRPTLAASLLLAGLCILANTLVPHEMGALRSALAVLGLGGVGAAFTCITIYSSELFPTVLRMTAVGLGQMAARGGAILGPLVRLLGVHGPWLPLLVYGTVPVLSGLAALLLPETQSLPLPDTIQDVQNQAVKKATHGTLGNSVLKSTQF
Test: URAT1 inhibitory effect, [8-14C] uric acid uptake
Format: cell-based
Conditions: test compound 100 μmol/L, 20 μmol/L uric acid, 5 minutes uptake
Source text: DMEM containing 10% FBS (supplemented with 0.05% geneticin, Nissui Pharmaceutical Co., Ltd.), HEK293 cells forced to express URAT1 (HCS (Human cell Systems), (Fuji Biomedix)), HBSS as washing buffer and HBSS substituted with Na-gluconate (NaCl in HBSS was substituted with Na-gluconate) were used for assay. [8-^14C] uric acid (moravek) was used as an uric acid reagent and added to assay buffer at 20 μmol/L as a final concentration. Compounds of the present invention were used as a test compound, 20 mmol/L stock solution of each test compound (DMSO solution) was diluted appropriately, and then the diluted test compound solution was added to assay buffer at 100 μmol/L as a final concentration including 0.5% final concentration of DMSO.
To prepare assay plates, at first, cells on subculture petri dish were peeled off using treatment of 0.05% trypsin-EDTA solution, and then seeded on Biocoat Poly-D-Lysine Cellware 24 well plate (BECTON DICKINSON) at a density of 2×10^5 cells/well and cultured for 2 days.
For the uptake study, at first, culture medium was removed by aspiration and cells were washed twice with HBSS (37° C.), then the buffer was replaced with 1 mL of assay buffer (37° C.). Cells were pre-incubated for 10 minutes. And then, the buffer was removed by aspiration and 0.5 mL of radioisotope ligand solution incubated at 37° C. was added, then cells were incubated for 5 minutes. After uptake, radioisotope solution was removed by aspiration, and immediately cells were washed three times with ice-cold HBSS, followed by resolving by addition of 0.5 mL of 0.5 mol/L NaOH. Cell lysate solution was transferred to a vial or 24 well plate for Betaplate, and mixed with 0.5 mL of liquid scintillator (Optiphase ‘Super Mix’; Perkin Elmer). Radioisotope activity was measured (using Betaplate 1450). As mean count in control solution not including test compound was 100%, percent inhibition was calculated by determining percent decrease in mean count in solution including test compound from mean count in control solution.

Compound	inhibition at 100 µM
N#Cc1cn(-c2ccc(C(=O)O)cc2)cc1-c1ccccc1C(F)(F)F [XO-B412]	50.5%
N#Cc1cn(-c2ccc(C(=O)O)cc2)c2ccccc12 [XO-CH146]	92.1%
COc1ccc2c(c1)c(C#N)cn2-c1ccc(C(=O)O)cc1 [XO-CH183]	80.6%
N#Cc1cn(-c2ccc(-c3nnn[nH]3)cc2)c2ccccc12 [XO-CH150]	79.3%
N#Cc1cn(-c2ccc(C(=O)O)cc2)c2ccc(F)cc12 [XO-CH168]	92.5%
Cc1c(C#N)c2ccccc2n1-c1ccc(C(=O)O)cc1 [XO-CH172]	88.3%
Cc1cccc2c(C#N)cn(-c3ccc(C(=O)O)cc3)c12 [XO-CH205]	95.7%

The next lines start with the values.

inhibition at 100 µM	Compound
98.1%	N#Cc1cn(-c2ccc(C(=O)O)cc2)c2cc(C(F)(F)F)ccc12 [XO-CH206]
95.2%	N#Cc1cn(-c2ccc(C(=O)O)cc2)c2nc(Cl)ccc12 [XO-KT18]
79.9%	N#Cc1nn(-c2ccc(C(=O)O)cc2)c2ccccc12 [XO-KT30]
64.6%	N#Cc1cnc2c(c1)c(C#N)cn2-c1ccc(C(=O)O)cc1 [XO-KT20]
92.3%	N#Cc1cn(-c2ccc(C(=O)O)cc2)c2ncccc12 [XO-KT10]

Biological target: T2, xanthine oxidase (from buttermilk) (Bos taurus, UniProt P80457)
T2 construct: xanthine oxidase (from buttermilk; biozyme laboratories); purchased biozyme laboratories; host or cells: buttermilk (natural source)
Test: Xanthine oxidase inhibitory effect
Format: biochemical
Conditions: 100 μmol/L xanthine, 5 mU/mL enzyme; read-out: X.O. inhibition IC50
Experimental: Assay for inhibition of xanthine oxidase was performed in 100 μmol/L substrate concentration (final concentration), 5 mU/mL enzyme concentration (final concentration) and compounds of the present invention as test compounds which were prepared with xanthine oxidase (from buttermilk; biozyme laboratories), xanthine (Sigma) and phosphate-buffered saline (PBS). In addition, all test compounds were frozen for preservation in condition of 20 mmol/L DMSO solution and used for experiments after thawing at need. Method is following: after diluted solution of test compound was added to 90 μL of 11.1 mU/mL enzyme solution, the mixture was incubated for 10 minutes after mixing. To start reaction, 100 μL of 200 μmol/L substrate solution was added to there, 10 minutes later, the reaction was stopped by addition of 500 μL of 0.5 mol/L sulfuric acid, and then absorbance at […] was measured. Final concentration of test compound was a single concentration, 10 μmol/L in single well for initial screening and 6 concentrations, 10, 1 μmol/L, 100, 10, 1 nmol/L, 100 pmol/L in duplicate for assay to calculate 50% inhibitory concentration (IC50) which were used for assay. Percent inhibition was calculated according to the formula described below. Percent inhibition (%)=(A−B)/(A−C)×100
In formula, A means absorbance in wells without test compound, B means absorbance in wells with test compound, C means absorbance in blank wells.
IC50 value was calculated from percent inhibition in each concentration by nonlinear regression method.

T2 sequence (P80457 whole entry): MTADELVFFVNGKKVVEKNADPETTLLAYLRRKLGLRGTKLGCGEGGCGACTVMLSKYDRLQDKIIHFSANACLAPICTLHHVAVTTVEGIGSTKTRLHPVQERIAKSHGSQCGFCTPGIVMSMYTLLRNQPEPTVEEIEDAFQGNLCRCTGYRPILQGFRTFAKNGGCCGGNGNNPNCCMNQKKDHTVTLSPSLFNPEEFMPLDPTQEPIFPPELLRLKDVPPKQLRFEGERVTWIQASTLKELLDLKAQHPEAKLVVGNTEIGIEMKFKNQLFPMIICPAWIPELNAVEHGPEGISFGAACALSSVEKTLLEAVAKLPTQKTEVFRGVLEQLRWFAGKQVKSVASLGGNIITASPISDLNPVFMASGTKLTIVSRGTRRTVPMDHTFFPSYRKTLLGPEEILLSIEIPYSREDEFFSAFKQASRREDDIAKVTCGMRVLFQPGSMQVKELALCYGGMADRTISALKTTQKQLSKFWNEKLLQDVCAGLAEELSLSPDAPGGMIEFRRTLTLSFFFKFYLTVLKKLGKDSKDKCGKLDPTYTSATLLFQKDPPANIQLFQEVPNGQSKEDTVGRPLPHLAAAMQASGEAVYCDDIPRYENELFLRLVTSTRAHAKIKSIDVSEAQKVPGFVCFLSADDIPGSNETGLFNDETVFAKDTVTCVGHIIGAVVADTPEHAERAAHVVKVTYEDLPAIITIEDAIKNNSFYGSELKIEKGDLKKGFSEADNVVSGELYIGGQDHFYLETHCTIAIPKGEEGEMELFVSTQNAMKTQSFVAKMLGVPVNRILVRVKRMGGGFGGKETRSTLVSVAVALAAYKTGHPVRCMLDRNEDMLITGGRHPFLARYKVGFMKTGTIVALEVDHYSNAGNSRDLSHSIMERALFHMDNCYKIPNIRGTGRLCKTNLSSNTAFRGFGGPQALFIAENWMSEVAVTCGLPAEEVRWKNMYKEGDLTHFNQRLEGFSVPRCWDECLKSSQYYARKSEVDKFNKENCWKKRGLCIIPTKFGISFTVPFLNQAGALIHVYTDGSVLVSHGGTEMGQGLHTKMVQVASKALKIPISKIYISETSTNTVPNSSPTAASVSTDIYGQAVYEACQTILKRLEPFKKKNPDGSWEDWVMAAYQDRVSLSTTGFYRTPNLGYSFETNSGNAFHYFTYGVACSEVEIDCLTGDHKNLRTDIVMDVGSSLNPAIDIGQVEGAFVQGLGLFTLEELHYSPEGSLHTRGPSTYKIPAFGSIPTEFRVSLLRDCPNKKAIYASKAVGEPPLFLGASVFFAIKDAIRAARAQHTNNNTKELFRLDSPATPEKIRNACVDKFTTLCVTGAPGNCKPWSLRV

Compound	IC50
N#Cc1nn(-c2ccc(C(=O)O)cc2)nc1-c1ccccc1 [XO-B366]	77.7 nM
N#Cc1cn(-c2ccc(C(=O)O)cc2)cc1-c1ccccc1C(F)(F)F [XO-B412]	6.38 nM
N#Cc1cn(-c2ccc(C(=O)O)cc2)c2ccccc12 [XO-CH146]	50.5 nM
COc1ccc2c(c1)c(C#N)cn2-c1ccc(C(=O)O)cc1 [XO-CH183]	14.5 nM
N#Cc1cn(-c2ccc(-c3nnn[nH]3)cc2)c2ccccc12 [XO-CH150]	31.6 nM
N#Cc1cn(-c2ccc(C(=O)O)cc2)c2ccc(F)cc12 [XO-CH168]	57.1 nM
N#Cc1cn(-c2ccc(C(=O)O)cc2)cc1-c1nccs1 [XO-B420]	6.33 nM
Cc1ccccc1-c1cn(-c2ccc(C(=O)O)cc2)cc1C#N [XO-B395-1]	3.59 nM
N#Cc1cn(-c2ccc(C(=O)O)cc2)cc1-c1ccccc1 [XO-B327]	4.9 nM

Other lines, results leading:

IC50	Compound
5.59 nM	COc1cccc(-c2nn(-c3ccc(C(=O)O)cc3)cc2C#N)c1 [XO-TT552]
8.47 nM	N#Cc1cn(-c2ccc(C(=O)O)cc2)nc1-c1ccccc1C(F)(F)F [XO-TT561]
5.52 nM	COc1ccccc1-c1nn(-c2ccc(C(=O)O)cc2)cc1C#N [XO-TT574]
4.86 nM	Cc1ccc(-c2nn(-c3ccc(C(=O)O)cc3)cc2C#N)cc1 [XO-TT537]
16 nM	N#Cc1cn(-c2ccc(-c3nnn[nH]3)cc2)nc1-c1ccccc1 [XO-TT473]
